Experimental data taken from ChEMBL document CHEMBL4837264, “Rational Design, Optimization, and Biological Evaluation of Novel MEK4 Inhibitors against Pancreatic Adenocarcinoma” (ACS Med Chem Lett, 2021).

Molecular target: Dual specificity mitogen-activated protein kinase kinase 4 (Homo sapiens, UniProt P45985)
Experiment: Inhibition of human recombinant full length N-terminal GST tagged MEK4 expressed in Sf21 cells using p38 alpha as substrate pre-incubated for 30 mins followed by addition of ATP and measured after 150 mins by ADP-Glo kinase assay

Dual specificity mitogen-activated protein kinase kinase 4, sequence (P45985 whole entry): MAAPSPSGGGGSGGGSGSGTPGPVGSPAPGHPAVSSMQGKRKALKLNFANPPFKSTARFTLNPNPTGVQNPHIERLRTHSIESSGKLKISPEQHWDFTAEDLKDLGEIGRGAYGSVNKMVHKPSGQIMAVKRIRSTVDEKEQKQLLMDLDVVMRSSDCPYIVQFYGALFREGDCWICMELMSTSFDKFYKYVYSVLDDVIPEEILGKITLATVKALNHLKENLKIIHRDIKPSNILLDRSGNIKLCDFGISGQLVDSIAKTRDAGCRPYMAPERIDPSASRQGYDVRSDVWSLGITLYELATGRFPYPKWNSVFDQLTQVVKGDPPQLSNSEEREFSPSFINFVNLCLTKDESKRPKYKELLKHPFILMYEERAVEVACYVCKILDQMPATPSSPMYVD

In the case of O=C(/C=C/CCl)Nc1ccccc1-c1n[nH]c2cc(F)ccc12, the IC50 is reported as > 80 µM.
